{"source": "PubChem BioAssay AID1963421", "about": "(Molecular Pharmacology Branch, DTP, NCI, 2024);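 further: seven day drug exposure begun three days after spheroid seeding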;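 on viability, T/C: 100% = DMSO vehicle wells and lower values mean less viable spheroid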", "system": "519858-162-T-J1-PDC complex spheroid growth, % test/control", "assay": "Anticancer human tumor 519858-162-T-J1-PDC patient-derived colon adenocarcinoma cell line growth inhibition [Asc]", "conditions": "for IC50: curve of first compound; for viability, T/C: stronger effect = lower value", "summary_of_the_method": "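Tumor cells were grown as multicellular spheroids with stromal HUVEC and mesenchymal stem cells and treated singly or in combination. Concentrations fell in half-log steps from the clinical Cmax, or from 10 microM where none was known.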", "key": {"[1]": {"conditions": "second compound 0.00316 µM, first compound 0.0316 µM"}, "[2]": {"conditions": "second compound 0.00316 µM, first compound 0.1 µM"}, "[3]": {"conditions": "second compound 0.00316 µM, first compound 0.316 µM"}, "[4]": {"conditions": "second compound 0.00316 µM, first compound 1 µM"}, "[5]": {"conditions": "second compound 0.01 µM, first compound 0.0316 µM"}, "[6]": {"conditions": "second compound 0.01 µM, first compound 0.1 µM"}, "[7]": {"conditions": "second compound 0.01 µM, first compound 0.316 µM"}, "[8]": {"conditions": "second compound 0.01 µM, first compound 1 µM"}, "[9]": {"conditions": "second compound 0.0316 µM, first compound 0.0316 µM"}, "[10]": {"conditions": "second compound 0.0316 µM, first compound 0.1 µM"}, "[11]": {"conditions": "second compound 0.0316 µM, first compound 0.316 µM"}, "[12]": {"conditions": "second compound 0.0316 µM, first compound 1 µM"}, "[13]": {"conditions": "second compound 0.1 µM, first compound 0.0316 µM"}, "[14]": {"conditions": "second compound 0.1 µM, first compound 0.1 µM"}, "[15]": {"conditions": "second compound 0.1 µM, first compound 0.316 µM"}, "[16]": {"conditions": "second compound 0.1 µM, first compound 1 µM"}, "[17]": {"conditions": "second compound 0.316 µM, first compound 0.0316 µM"}, "[18]": {"conditions": "second compound 0.316 µM, first compound 0.1 µM"}, "[19]": {"conditions": "second compound 0.316 µM, first compound 0.316 µM"}, "[20]": {"conditions": "second compound 0.316 µM, first compound 1 µM"}, "[21]": {"conditions": "second compound 1 µM, first compound 0.0316 µM"}, "[22]": {"conditions": "second compound 1 µM, first compound 0.1 µM"}, "[23]": {"conditions": "second compound 1 µM, first compound 0.316 µM"}, "[24]": {"conditions": "second compound 1 µM, first compound 1 µM"}}, "data": [{"smiles": "C=CC(=O)N1CCN(c2nc(=O)n(-c3c(C)ccnc3C(C)C)c3nc(-c4c(O)cccc4F)c(F)cc23)C(C)C1", "note": "(centres undefined) + CNC(C)C(=O)NC1CN(S(=O)(=O)c2cccc(S(=O)(=O)N3CCC4CCC(C(=O)NC(c5ccccc5)c5ccccc5)N4C(=O)C(NC(=O)C(C)NC)C3)c2)CCC2CCC(C(=O)NC(c3ccccc3)c3ccccc3)N2C1=O", "values": [{"measurement": "IC50", "setting": "second compound 0.00316 µM", "value": "> 10000", "unit": "nM"}, {"measurement": "IC50", "setting": "second compound 0.01 µM", "value": "> 10000", "unit": "nM"}, {"measurement": "IC50", "setting": "second compound 0.0316 µM", "value": "> 10000", "unit": "nM"}, {"measurement": "IC50", "setting": "second compound 0.1 µM", "value": "> 10000", "unit": "nM"}, {"measurement": "IC50", "setting": "second compound 0.316 µM", "value": "> 10000", "unit": "nM"}, {"measurement": "IC50", "setting": "second compound 1 µM", "value": "> 10000", "unit": "nM"}, {"measurement": "viability, T/C", "setting": "[1]", "value": 125, "unit": "%"}, {"measurement": "viability, T/C", "setting": "[2]", "value": 106, "unit": "%"}, {"measurement": "viability, T/C", "setting": "[3]", "value": 98.9, "unit": "%"}, {"measurement": "viability, T/C", "setting": "[4]", "value": 75.7, "unit": "%"}, {"measurement": "viability, T/C", "setting": "second compound 0.00316 µM, first compound 3.16 µM", "value": 88.3, "unit": "%"}, {"measurement": "viability, T/C", "setting": "second compound 0.00316 µM, first compound 10 µM", "value": 89.6, "unit": "%"}, {"measurement": "viability, T/C", "setting": "[5]", "value": 113, "unit": "%"}, {"measurement": "viability, T/C", "setting": "[6]", "value": 84, "unit": "%"}, {"measurement": "viability, T/C", "setting": "[7]", "value": 101, "unit": "%"}, {"measurement": "viability, T/C", "setting": "[8]", "value": 76.1, "unit": "%"}, {"measurement": "viability, T/C", "setting": "second compound 0.01 µM, first compound 3.16 µM", "value": 85.8, "unit": "%"}, {"measurement": "viability, T/C", "setting": "second compound 0.01 µM, first compound 10 µM", "value": 92.4, "unit": "%"}, {"measurement": "viability, T/C", "setting": "[9]", "value": 104, "unit": "%"}, {"measurement": "viability, T/C", "setting": "[10]", "value": 95.4, "unit": "%"}, {"measurement": "viability, T/C", "setting": "[11]", "value": 109, "unit": "%"}, {"measurement": "viability, T/C", "setting": "[12]", "value": 79.1, "unit": "%"}, {"measurement": "viability, T/C", "setting": "second compound 0.0316 µM, first compound 3.16 µM", "value": 101, "unit": "%"}, {"measurement": "viability, T/C", "setting": "second compound 0.0316 µM, first compound 10 µM", "value": 90.8, "unit": "%"}, {"measurement": "viability, T/C", "setting": "[13]", "value": 77.9, "unit": "%"}, {"measurement": "viability, T/C", "setting": "[14]", "value": 80, "unit": "%"}, {"measurement": "viability, T/C", "setting": "[15]", "value": 103, "unit": "%"}, {"measurement": "viability, T/C", "setting": "[16]", "value": 90.4, "unit": "%"}, {"measurement": "viability, T/C", "setting": "second compound 0.1 µM, first compound 3.16 µM", "value": 77.9, "unit": "%"}, {"measurement": "viability, T/C", "setting": "second compound 0.1 µM, first compound 10 µM", "value": 80.4, "unit": "%"}, {"measurement": "viability, T/C", "setting": "[17]", "value": 85.2, "unit": "%"}, {"measurement": "viability, T/C", "setting": "[18]", "value": 94.9, "unit": "%"}, {"measurement": "viability, T/C", "setting": "[19]", "value": 95.4, "unit": "%"}, {"measurement": "viability, T/C", "setting": "[20]", "value": 89.2, "unit": "%"}, {"measurement": "viability, T/C", "setting": "second compound 0.316 µM, first compound 3.16 µM", "value": 90.5, "unit": "%"}, {"measurement": "viability, T/C", "setting": "second compound 0.316 µM, first compound 10 µM", "value": 98.4, "unit": "%"}, {"measurement": "viability, T/C", "setting": "[21]", "value": 89.7, "unit": "%"}, {"measurement": "viability, T/C", "setting": "[22]", "value": 90.3, "unit": "%"}, {"measurement": "viability, T/C", "setting": "[23]", "value": 80.3, "unit": "%"}, {"measurement": "viability, T/C", "setting": "[24]", "value": 82, "unit": "%"}, {"measurement": "viability, T/C", "setting": "second compound 1 µM, first compound 3.16 µM", "value": 91.1, "unit": "%"}, {"measurement": "viability, T/C", "setting": "second compound 1 µM, first compound 10 µM", "value": 88, "unit": "%"}]}, {"smiles": "COc1c(OCCCN2CCOCC2)ccc2c3n(c(=NC(=O)c4cnc(N)nc4)nc12)CCN3", "note": "+ CNC(C)C(=O)NC1CN(S(=O)(=O)c2cccc(S(=O)(=O)N3CCC4CCC(C(=O)NC(c5ccccc5)c5ccccc5)N4C(=O)C(NC(=O)C(C)NC)C3)c2)CCC2CCC(C(=O)NC(c3ccccc3)c3ccccc3)N2C1=O", "values": [{"measurement": "IC50", "setting": "second compound 0.00316 µM", "value": 320, "unit": "nM"}, {"measurement": "IC50", "setting": "second compound 0.01 µM", "value": 162, "unit": "nM"}, {"measurement": "IC50", "setting": "second compound 0.0316 µM", "value": 156, "unit": "nM"}, {"measurement": "IC50", "setting": "second compound 0.1 µM", "value": 132, "unit": "nM"}, {"measurement": "IC50", "setting": "second compound 0.316 µM", "value": 237, "unit": "nM"}, {"measurement": "IC50", "setting": "second compound 1 µM", "value": 259, "unit": "nM"}, {"measurement": "viability, T/C", "setting": "second compound 0.00316 µM, first compound 0.00316 µM", "value": 78.1, "unit": "%"}, {"measurement": "viability, T/C", "setting": "second compound 0.00316 µM, first compound 0.01 µM", "value": 61, "unit": "%"}, {"measurement": "viability, T/C", "setting": "[1]", "value": 68.8, "unit": "%"}, {"measurement": "viability, T/C", "setting": "[2]", "value": 65.4, "unit": "%"}, {"measurement": "viability, T/C", "setting": "[3]", "value": 48.8, "unit": "%"}, {"measurement": "viability, T/C", "setting": "[4]", "value": 27.9, "unit": "%"}, {"measurement": "viability, T/C", "setting": "second compound 0.01 µM, first compound 0.00316 µM", "value": 83.3, "unit": "%"}, {"measurement": "viability, T/C", "setting": "second compound 0.01 µM, first compound 0.01 µM", "value": 89.9, "unit": "%"}, {"measurement": "viability, T/C", "setting": "[5]", "value": 85.4, "unit": "%"}, {"measurement": "viability, T/C", "setting": "[6]", "value": 53.9, "unit": "%"}, {"measurement": "viability, T/C", "setting": "[7]", "value": 53.1, "unit": "%"}, {"measurement": "viability, T/C", "setting": "[8]", "value": 34.4, "unit": "%"}, {"measurement": "viability, T/C", "setting": "second compound 0.0316 µM, first compound 0.00316 µM", "value": 82.7, "unit": "%"}, {"measurement": "viability, T/C", "setting": "second compound 0.0316 µM, first compound 0.01 µM", "value": 78.9, "unit": "%"}, {"measurement": "viability, T/C", "setting": "[9]", "value": 67, "unit": "%"}, {"measurement": "viability, T/C", "setting": "[10]", "value": 54.9, "unit": "%"}, {"measurement": "viability, T/C", "setting": "[11]", "value": 42.1, "unit": "%"}, {"measurement": "viability, T/C", "setting": "[12]", "value": 27.6, "unit": "%"}, {"measurement": "viability, T/C", "setting": "second compound 0.1 µM, first compound 0.00316 µM", "value": 86.5, "unit": "%"}, {"measurement": "viability, T/C", "setting": "second compound 0.1 µM, first compound 0.01 µM", "value": 68.2, "unit": "%"}, {"measurement": "viability, T/C", "setting": "[13]", "value": 56.9, "unit": "%"}, {"measurement": "viability, T/C", "setting": "[14]", "value": 62.5, "unit": "%"}, {"measurement": "viability, T/C", "setting": "[15]", "value": 37.1, "unit": "%"}, {"measurement": "viability, T/C", "setting": "[16]", "value": 39.1, "unit": "%"}, {"measurement": "viability, T/C", "setting": "second compound 0.316 µM, first compound 0.00316 µM", "value": 72.5, "unit": "%"}, {"measurement": "viability, T/C", "setting": "second compound 0.316 µM, first compound 0.01 µM", "value": 88.5, "unit": "%"}, {"measurement": "viability, T/C", "setting": "[17]", "value": 78.3, "unit": "%"}, {"measurement": "viability, T/C", "setting": "[18]", "value": 65.9, "unit": "%"}, {"measurement": "viability, T/C", "setting": "[19]", "value": 45.1, "unit": "%"}, {"measurement": "viability, T/C", "setting": "[20]", "value": 36.4, "unit": "%"}, {"measurement": "viability, T/C", "setting": "second compound 1 µM, first compound 0.00316 µM", "value": 84.4, "unit": "%"}, {"measurement": "viability, T/C", "setting": "second compound 1 µM, first compound 0.01 µM", "value": 64.9, "unit": "%"}, {"measurement": "viability, T/C", "setting": "[21]", "value": 83.7, "unit": "%"}, {"measurement": "viability, T/C", "setting": "[22]", "value": 48.3, "unit": "%"}, {"measurement": "viability, T/C", "setting": "[23]", "value": 53.6, "unit": "%"}, {"measurement": "viability, T/C", "setting": "[24]", "value": 32, "unit": "%"}]}]}
